Earlier results, collected in patent US9457059B2, “Compositions and methods for treating renal failure” (La Jolla Pharmaceutical Company, priority 2013, dated 2016).

Assays:
[1] = tested on: patients with cirrhosis and ascites
[2] = tested on: patients with cirrhosis and ascites; remark: listed apart in the source

Asp-Arg-Val-Tyr-Ile-His-Pro-Phe (DRVYIHPF) [angiotensin II, peptide hormone that regulates blood pressure via vasoconstriction and sodium reabsorption]
tolerability ([1]; use in patients with cirrhosis and ascites): well-tolerated

Asp-Arg-Val-Tyr-Ile-His-Pro-Phe [angiotensin II, peptide hormone that regulates blood pressure via vasoconstriction and sodium reabsorption]
increase in urine output and sodium excretion compared with norepinephrine ([1]; Laragh et al., versus norepinephrine): much more pronounced than those produced by norepinephrine | natriuresis and urine output ([1]; patients with cirrhosis and ascites, no renal failure): induces marked natriuresis and urine output | increase in sodium excretion compared with norepinephrine ([1]; second study, Ames et al., versus norepinephrine): greater increase in sodium excretion compared to norepinephrine

C[C@H](CS)C(=O)N1CCC[C@H]1C(=O)O [captopril]
sodium excretion and urinary output [2]: significantly reduced both sodium excretion and urinary output
